Data: patent publication US20150283120A1, “ANTIBIOTIC METHODS AND COMPOSITIONS FOR BACTERIA INFECTIONS” (THE UNIVERSITY OF CHICAGO, priority 2012, published 2015)
Structures can show the parent of a compound that is named as a salt.

Tests used:
[1] = tested on: MRSA strain USA300 Pvra-lux; format: cell-based, Staphylococcus aureus; details: compound 10 μM + oxacillin 2 μg/mL; for RG avg (relative growth): ratio of OD600 to oxacillin alone, four runs
Experimental: (§1) In the secondary screen each microtiter plate contained either cells in TSB alone (16 replicates), cells with oxacillin (2 μg/mL, 31 replicates), or cells with test compound and oxacillin (2 μg/mL, 49 wells). Each compound was assayed in four separate biological replicates.
(§2) All compounds classified in the primary screen as synergists that were vraSR-stimulating or -repressing (as shown in Table 8) were screened in a secondary assay for their effects on both growth and Pvra::lux induction by oxacillin. […] Each compound was tested four separate times at 10 μM in the presence of oxacillin (2 μg/mL) and luminescence was measured every 15 minutes. Relative growth (RG) and relative luminescence (RL) was calculated as the ratio between the OD600 or max LU value in the presence of compound and oxacillin over the average from pooled control values obtained from the same plate. […] Compounds that produced an average RG (ratio of the OD600 of the culture grown with test compound combined with oxacillin to that of oxacillin alone) of <0.8 were classified as oxacillin synergists or potentiators. The relative luminescence (RL) was the ratio of the LU produced in the presence of the test compound combined with oxacillin to that produced by oxacillin alone. Compounds were classified as “vraSR repressors” (mean RL of <0.8), “vraSR stimulators”, (mean RL>1.2), and “vraSR neutral” (mean RL between 0.80-1.2). […] In contrast, 34 compounds had no effect on growth in the presence of oxacillin (“un” in the OD600 category). Among the oxacillin potentiators, there were 2 vraSR stimulators, 3 vraSR neutral compounds and 10 vraSR repressors.

[2] = tested on: vraSR transcription (Pvra::lux); format: cell-based, Staphylococcus aureus; details: compound 10 μM + oxacillin 2 μg/mL; for RL avg (relative luminescence): ratio of LU to oxacillin alone, four runs
Experimental: as §1, §2

Structure (SMILES)	OD600 category [1]	RG avg (relative growth) [1]	Effect on vraSR transcription [2]	RL avg (relative luminescence) [2]
CN(C)CCOC(=O)COc1ccc(Cl)cc1 [Meclofenoxate hydrochloride]	un (no effect on growth in the presence of oxacillin (“un” in the OD600 category))	1.08	neutral (“vraSR neutral” (mean RL between 0.80-1.2))	1.08
N=C(N)NC(=O)Cc1c(Cl)cccc1Cl [Guanfacine hydrochloride]	un (no effect on growth in the presence of oxacillin (“un” in the OD600 category))	0.88	neutral (“vraSR neutral” (mean RL between 0.80-1.2))	0.79
CN[C@@H]1[C@H](O)[C@H](NC)[C@H]2O[C@@]3(O)C(=O)C[C@@H](C)O[C@H]3O[C@@H]2[C@H]1O [Spectinomycin dihydrochloride]	un (no effect on growth in the presence of oxacillin (“un” in the OD600 category))	0.89	neutral (“vraSR neutral” (mean RL between 0.80-1.2))	0.77
NS(=O)(=O)c1cc2c(cc1Cl)N=C(CSCc1ccccc1)NS2(=O)=O [Benzthiazide]	un (no effect on growth in the presence of oxacillin (“un” in the OD600 category))	1.01	neutral (“vraSR neutral” (mean RL between 0.80-1.2))	0.95
C#C[C@]1(O)CC[C@H]2[C@@H]3CCc4cc(OC)ccc4[C@H]3CC[C@@]21C [Ethynylestradiol 3-methyl ether]	un (no effect on growth in the presence of oxacillin (“un” in the OD600 category))	0.95	repress (“vraSR repressors” (mean RL of <0.8))	0.97
O=C1c2c(O)ccc(O)c2C(=O)c2c(NCCNCCO)ccc(NCCNCCO)c21 [Mitoxantrone dihydrochloride]	un (no effect on growth in the presence of oxacillin (“un” in the OD600 category))	0.94	neutral (“vraSR neutral” (mean RL between 0.80-1.2))	0.83
C(=C\c1ccccc1)/CN1CCN(C(c2ccccc2)c2ccccc2)CC1 [Cinnarizine]	un (no effect on growth in the presence of oxacillin (“un” in the OD600 category))	0.97	neutral (“vraSR neutral” (mean RL between 0.80-1.2))	0.94
N[C@@H](Cc1cc(I)c(Oc2ccc(O)c(I)c2)c(I)c1)C(=O)O [Liothyronine]	un (no effect on growth in the presence of oxacillin (“un” in the OD600 category))	0.88	neutral (“vraSR neutral” (mean RL between 0.80-1.2))	0.87
Cc1ccnc(NS(=O)(=O)c2ccc(N)cc2)n1 [Sulfamerazine]	un (no effect on growth in the presence of oxacillin (“un” in the OD600 category))	0.99	neutral (“vraSR neutral” (mean RL between 0.80-1.2))	1.01
CCn1nc(C(=O)O)c(=O)c2cc3c(cc21)OCO3 [Cinoxacin]	un (no effect on growth in the presence of oxacillin (“un” in the OD600 category))	1.05	neutral (“vraSR neutral” (mean RL between 0.80-1.2))	1.03
C=C1CC[C@H](O)C/C1=C/C=C1\CCC[C@]2(C)[C@@H]([C@H](C)/C=C/[C@H](C)C(C)C)CC[C@@H]12 [Calciferol]	un (no effect on growth in the presence of oxacillin (“un” in the OD600 category))	0.96	neutral (“vraSR neutral” (mean RL between 0.80-1.2))	0.88
CC1CS(=O)(=O)CCN1/N=C/c1ccc([N+](=O)[O-])o1 (stereo not drawn) [Nifurtimox]	un (no effect on growth in the presence of oxacillin (“un” in the OD600 category))	0.97	repress (“vraSR repressors” (mean RL of <0.8))	0.95
COc1cccc2c1C(=O)c1c(O)c3c(c(O)c1C2=O)C[C@@](O)(C(=O)CO)C[C@@H]3O[C@H]1C[C@H](N)[C@H](O)[C@H](C)O1 [Doxorubicin hydrochloride]	un (no effect on growth in the presence of oxacillin (“un” in the OD600 category))	0.88	repress (“vraSR repressors” (mean RL of <0.8))	0.83
C[C@]12CC[C@H](O)C[C@H]1CC[C@@H]1[C@@H]2CC[C@]2(C)[C@@H](C3=CC(=O)OC3)CC[C@]12O [Digitoxigenin]	un (no effect on growth in the presence of oxacillin (“un” in the OD600 category))	1.01	neutral (“vraSR neutral” (mean RL between 0.80-1.2))	0.97
C=C(C)[C@@H]1CC[C@]2(C(=O)O)CC[C@]3(C)[C@H](CC[C@@H]4[C@@]5(C)CC[C@H](O)C(C)(C)[C@@H]5CC[C@]43C)[C@@H]12 [Betulinic acid]	un (no effect on growth in the presence of oxacillin (“un” in the OD600 category))	0.87	neutral (“vraSR neutral” (mean RL between 0.80-1.2))	0.83
NS(=O)(=O)c1cc2c(cc1Cl)NC(C(Cl)Cl)NS2(=O)=O (stereo not drawn) [Trichlormethiazide]	un (no effect on growth in the presence of oxacillin (“un” in the OD600 category))	1.10	neutral (“vraSR neutral” (mean RL between 0.80-1.2))	1.06
COc1ccc(-c2cc(=O)c3c(O)cc(O)cc3o2)cc1 [Acacetin]	un (no effect on growth in the presence of oxacillin (“un” in the OD600 category))	0.91	neutral (“vraSR neutral” (mean RL between 0.80-1.2))	0.88
CC(C(=O)O)c1ccc(N2Cc3ccccc3C2=O)cc1 (stereo not drawn) [Indoprofen]	un (no effect on growth in the presence of oxacillin (“un” in the OD600 category))	0.98	neutral (“vraSR neutral” (mean RL between 0.80-1.2))	0.87
O=C(CCCN1CC=C(n2c(=O)[nH]c3ccccc32)CC1)c1ccc(F)cc1 [Droperidol]	un (no effect on growth in the presence of oxacillin (“un” in the OD600 category))	1.02	neutral (“vraSR neutral” (mean RL between 0.80-1.2))	0.91
COc1cccc2c1C(=O)c1c(O)c3c(c(O)c1C2=O)C[C@@](O)(C(C)=O)C[C@@H]3O[C@H]1C[C@H](N)[C@H](O)[C@H](C)O1 [Daunorubicin hydrochloride]	un (no effect on growth in the presence of oxacillin (“un” in the OD600 category))	0.98	repress (“vraSR repressors” (mean RL of <0.8))	1.00
O=C1OC(CN2CCOCC2)CN1/N=C/c1ccc([N+](=O)[O-])o1 (stereo not drawn) [Furaltadone hydrochloride]	un (no effect on growth in the presence of oxacillin (“un” in the OD600 category))	1.00	repress (“vraSR repressors” (mean RL of <0.8))	1.01
